Experimental data: ChEMBL document CHEMBL3871302, “Synthesis of novel steroidal agonists, partial agonists, and antagonists for the glucocorticoid receptor” (Bioorg Med Chem Lett, 2017)
The source made the active and inactive calls. No cut-off for these calls is given here.

Experiments:
Format in all cases: cell-based
[1] = molecular target: T1, Glucocorticoid receptor (Homo sapiens) (UniProt P04150); experiment: (§1) Agonist activity at GR in human HepG2 cells assessed as protein mediated-transcriptional activity by MMTV-promoter driven luciferase reporter gene assay
T1 sequence (whole entry): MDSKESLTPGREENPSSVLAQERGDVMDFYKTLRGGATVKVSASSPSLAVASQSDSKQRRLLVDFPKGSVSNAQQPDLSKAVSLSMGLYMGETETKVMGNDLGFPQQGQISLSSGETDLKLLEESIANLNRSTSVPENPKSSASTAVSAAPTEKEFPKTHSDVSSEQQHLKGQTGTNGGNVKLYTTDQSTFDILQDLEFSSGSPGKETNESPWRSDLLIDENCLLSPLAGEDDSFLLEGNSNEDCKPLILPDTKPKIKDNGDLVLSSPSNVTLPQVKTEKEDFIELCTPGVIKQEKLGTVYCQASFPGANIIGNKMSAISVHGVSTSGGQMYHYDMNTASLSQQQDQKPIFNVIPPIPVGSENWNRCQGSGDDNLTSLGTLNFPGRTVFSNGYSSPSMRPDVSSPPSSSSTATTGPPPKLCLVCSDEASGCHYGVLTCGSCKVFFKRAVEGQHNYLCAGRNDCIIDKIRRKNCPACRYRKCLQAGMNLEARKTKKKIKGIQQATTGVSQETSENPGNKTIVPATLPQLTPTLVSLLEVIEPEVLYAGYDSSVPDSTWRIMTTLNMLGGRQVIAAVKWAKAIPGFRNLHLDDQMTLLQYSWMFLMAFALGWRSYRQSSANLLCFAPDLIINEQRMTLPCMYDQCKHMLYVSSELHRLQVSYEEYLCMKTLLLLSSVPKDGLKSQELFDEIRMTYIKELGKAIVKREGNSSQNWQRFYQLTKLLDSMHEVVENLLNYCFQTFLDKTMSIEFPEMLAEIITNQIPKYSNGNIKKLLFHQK

[2] = molecular target: T1, Glucocorticoid receptor (Homo sapiens); experiment: (§2) Antagonist activity at GR in human HepG2 cells assessed as inhibition of protein mediated-transcriptional activity by MMTV-promoter driven luciferase reporter gene assay
[3] = molecular target: T2, Glucocorticoid receptor (Mus musculus) (UniProt P06537); experiment: Antagonist activity at GR in mouse C2C12 cells assessed as increase in LPS-induced IL6 production by alphaLISA assay relative to control; design: scale not given: the % may be the effect or the level left
T2 sequence (whole entry): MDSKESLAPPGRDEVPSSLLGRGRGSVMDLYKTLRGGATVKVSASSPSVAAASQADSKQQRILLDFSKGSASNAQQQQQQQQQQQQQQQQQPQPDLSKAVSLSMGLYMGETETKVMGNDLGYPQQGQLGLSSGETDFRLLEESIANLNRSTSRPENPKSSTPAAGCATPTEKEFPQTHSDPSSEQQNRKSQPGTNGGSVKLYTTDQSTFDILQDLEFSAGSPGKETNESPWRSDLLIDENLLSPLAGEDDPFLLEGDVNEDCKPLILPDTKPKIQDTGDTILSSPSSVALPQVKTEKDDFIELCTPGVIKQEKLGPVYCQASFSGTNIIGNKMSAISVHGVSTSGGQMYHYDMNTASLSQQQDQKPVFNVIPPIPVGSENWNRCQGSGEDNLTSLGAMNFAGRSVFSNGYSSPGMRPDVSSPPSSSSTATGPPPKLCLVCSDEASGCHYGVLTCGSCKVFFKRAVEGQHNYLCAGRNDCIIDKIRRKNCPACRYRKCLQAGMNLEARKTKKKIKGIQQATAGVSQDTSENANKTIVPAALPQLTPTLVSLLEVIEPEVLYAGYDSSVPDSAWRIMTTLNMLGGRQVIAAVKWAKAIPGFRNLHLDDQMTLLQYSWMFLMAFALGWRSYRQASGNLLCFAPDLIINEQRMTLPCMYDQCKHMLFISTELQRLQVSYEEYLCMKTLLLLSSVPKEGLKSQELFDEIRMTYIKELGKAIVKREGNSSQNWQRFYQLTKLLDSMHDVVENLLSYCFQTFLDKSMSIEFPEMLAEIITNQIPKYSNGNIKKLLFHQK

[4] = molecular target: T3, Glucocorticoid receptor (Homo sapiens, UniProt P04150); experiment: as §1
T3 sequence (P04150 whole entry): T1 sequence (whole entry)

[5] = molecular target: T3, Glucocorticoid receptor; experiment: as §2
[6] = molecular target: T2, Glucocorticoid receptor (Mus musculus); experiment: Agonist activity at GR in mouse C2C12 cells assessed as suppression of LPS-induced IL6 production by alphaLISA assay
[7] = molecular target: T1, Glucocorticoid receptor (Homo sapiens); experiment: Antagonist activity at GR in human HepG2 cells assessed as inhibition of protein mediated-transcriptional activity at 10 uM by MMTV-promoter driven luciferase reporter gene assay

Structure (SMILES)	Efficacy [1] [%]	Efficacy [2] [%]	Activity [3]	EC50 [4] [nM]	IC50 [5] [nM]	Activity [6]	Efficacy [7] [%]
Cc1ncccc1NC(=O)c1ccc2c(c1)CC[C@@H]1[C@@H]2[C@@H](O)C[C@@]2(C)[C@H]1CC[C@]2(C)O	-0.5	112	Active				
C=CCO[C@H]1C[C@@]2(C)[C@@H](CC[C@@]2(O)C#CC)[C@@H]2CCc3cc(C(=O)Nc4cccnc4C)ccc3[C@H]21	56	57		0.11	0.03	Active	
C=CCOC(=O)O[C@H]1C[C@@]2(C)[C@@H](CC[C@@]2(O)C#CC)[C@@H]2CCc3cc(C(=O)Nc4cccnc4C)ccc3[C@H]21	2.4	-0.7			84	Active	
CC#C[C@]1(O)CC[C@H]2[C@@H]3CCc4cc(C(=O)Nc5ncccc5C)ccc4[C@H]3[C@@H](O)C[C@@]21C	92	239		280		Active	
Cc1ncccc1NC(=O)c1ccc2c(c1)CC[C@@H]1[C@@H]2[C@@H](O)C[C@]2(C)[C@@H](O)CC[C@@H]12	0.4	85	Active				
Cc1ncccc1NC(=O)c1ccc2c(c1)CC[C@@H]1[C@@H]2[C@@H](O)C[C@@]2(C)[C@H]1CC[C@@]2(O)C#CC(C)C	28	39	Active	> 5000	37		
CCCCC#C[C@]1(O)CC[C@H]2[C@@H]3CCc4cc(C(=O)Nc5cccnc5C)ccc4[C@H]3[C@@H](O)C[C@@]21C	56	74	Active	100	2350		
CC#C[C@]1(O)CC[C@H]2[C@@H]3CCc4cc(C(=O)Nc5cccnc5C)ccc4C3=CC[C@@]21C	51.6	30.6		1860		Active	
CC#C[C@]1(O)CC[C@H]2[C@@H]3CCc4cc(C(=O)Nc5cccnc5C)ccc4[C@H]3[C@H](O)C[C@@]21C	19.4	55				Active	
CC#C[C@]1(O)CC[C@H]2[C@@H]3CCc4cc(C(=O)Nc5cnccc5C)ccc4[C@H]3[C@@H](O)C[C@@]21C	73	147		240		Active	
CC#C[C@]1(O)CC[C@H]2[C@@H]3CCc4cc(C(=O)Nc5cncc(C)c5)ccc4[C@H]3[C@@H](O)C[C@@]21C	-0.1		Active				22
CC#C[C@]1(O)CC[C@H]2[C@@H]3CCc4cc(C(=O)Nc5cccnc5C)ccc4[C@H]3[C@@H](OCC)C[C@@]21C	67	73		0.05		Active	
Cc1ncccc1NC(=O)c1ccc2c(c1)CC[C@@H]1[C@@H]2[C@@H](O)C[C@@]2(C)[C@H]1CC[C@@]2(O)C#Cc1ccccc1	2.1	1.4	Active		558		
CC#C[C@]1(O)CC[C@H]2[C@@H]3CCc4cc(C(=O)Nc5cccnc5C)ccc4[C@H]3[C@@H](OCc3ccc(Cl)cc3)C[C@@]21C	-0.2	0.06			0.07	Active	
CC#C[C@]1(O)CC[C@H]2[C@@H]3CCc4cc(C(=O)Nc5cccnc5C)ccc4[C@H]3[C@@H](OCc3cccc(Cl)c3)C[C@@]21C	0.2	-0.3			0.9	Active	
CC#C[C@]1(O)CC[C@H]2[C@@H]3CCc4cc(C(=O)Nc5cccnc5C)ccc4[C@H]3[C@@H](OCc3ccccc3Cl)C[C@@]21C	0.6	1.7			1.4	Active	
CC#C[C@]1(O)CC[C@H]2[C@@H]3CCc4cc(C(=O)Nc5cccnc5C)ccc4[C@H]3[C@@H](O)C[C@@]21C	35	46		265	626	Active	
Cc1ncccc1NC(=O)c1ccc2c(c1)CC[C@@H]1[C@@H]2[C@@H](O)C[C@@]2(C)[C@H]1CC[C@@]2(O)C#C[Si](C)(C)C	110	90	Active	47			
CC#C[C@]1(O)CC[C@H]2[C@@H]3CCc4cc(C(=O)Nc5cccnc5C)ccc4[C@H]3[C@@H](OC)C[C@@]21C	71	84		0.04		Active	
C#C[C@]1(O)CC[C@H]2[C@@H]3CCc4cc(C(=O)Nc5cccnc5C)ccc4[C@H]3[C@@H](O)C[C@@]21C	3.2	96	Active				
CC#C[C@]1(O)CC[C@H]2[C@@H]3CCc4cc(C(=O)Nc5cccnc5C)ccc4[C@H]3[C@@H](OCc3ccccc3)C[C@@]21C	-0.4	-0.1			0.4	Active	
CC#C[C@]1(O)CC[C@H]2[C@@H]3CCc4cc(C(=O)Nc5cccnc5)ccc4[C@H]3[C@@H](O)C[C@@]21C	0.2	10	50%		455		
CC#C[C@]1(O)CC[C@H]2[C@@H]3CCc4cc(C(=O)Nc5ccncc5C)ccc4[C@H]3[C@@H](O)C[C@@]21C	12	23	Active	149	1360		
